The values below come from the supplement of paper PMC10307832.

What all share (test): relative viability (nuclei count vs DMSO), 5 days (fraction); higher = more cells survive
Compound in the assay “Ibrutinib + Lapatinib”: C=CC(=O)N1CCC[C@@H](n2nc(-c3ccc(Oc4ccccc4)cc3)c3c(N)ncnc32)C1 [Ibrutinib] + CS(=O)(=O)CCNCc1ccc(-c2ccc3ncnc(Nc4ccc(OCc5cccc(F)c5)c(Cl)c4)c3c2)o1 [Lapatinib] (partner 2 µM)
The method in brief: (§1)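 For relative viability, nuclei counts in treated wells were divided by those in vehicle wells. Lung cancer cell lines had been pin-tool dosed in 1536-well plates the day after seeding and cultured for 5 days, then fixed and stained in one step (final 0.05% Triton X-100, 1% formaldehyde, 1 ug/ml Hoechst) and imaged at 4×. Doses were one drug alone or a fixed anchor-drug dose plus five library-drug doses (not always all listed) in √10 steps, and values are duplicate-plate medians.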

Compound in the assay “PAC-1 + Lapatinib”: C=CCc1cccc(/C=N/NC(=O)CN2CCN(Cc3ccccc3)CC2)c1O [PAC-1] + CS(=O)(=O)CCNCc1ccc(-c2ccc3ncnc(Nc4ccc(OCc5cccc(F)c5)c(Cl)c4)c3c2)o1 [Lapatinib] (partner 2 µM)
The method in brief: as §1

Compound in the assay “BMX-IN-1 + Crizotinib”: C=CC(=O)Nc1cc(-n2c(=O)ccc3cnc4ccc(-c5ccc(NS(C)(=O)=O)cc5)cc4c32)ccc1C [BMX-IN-1] + C[C@@H](Oc1cc(-c2cnn(C3CCNCC3)c2)cnc1N)c1c(Cl)ccc(F)c1Cl [Crizotinib] (partner 1 µM)
The method in brief: as §1

Compound in the assay “PAC-1 + Pictilisib”: C=CCc1cccc(/C=N/NC(=O)CN2CCN(Cc3ccccc3)CC2)c1O [PAC-1] + CS(=O)(=O)N1CCN(Cc2cc3nc(-c4cccc5[nH]ncc45)nc(N4CCOCC4)c3s2)CC1 [Pictilisib] (partner 1 µM)
The method in brief: as §1

Consider SK-MES-1, for which the relative viability was determined as 0.506 in the assay with Ibrutinib + Lapatinib (first compound 0.005 µM); 0.456 in the assay with Ibrutinib + Lapatinib (first compound 0.01581 µM); 0.461 with Ibrutinib + Lapatinib (first compound 0.05 µM); 0.446 with Ibrutinib + Lapatinib (first compound 0.1581 µM); 0.441 with Ibrutinib + Lapatinib (first compound 0.5 µM); 0.455 with PAC-1 + Lapatinib (first compound 0.02 µM). The relative viability in the assay with PAC-1 + Lapatinib (first compound 0.06325 µM) is 0.457; in the assay with PAC-1 + Lapatinib (first compound 0.2 µM), 0.443; with PAC-1 + Lapatinib (first compound 2 µM), 0.445; with BMX-IN-1 + Crizotinib (first compound 0.02 µM), 1.08; with BMX-IN-1 + Crizotinib (first compound 0.2 µM), 1.3; in the assay with BMX-IN-1 + Crizotinib (first compound 0.6325 µM), 1.08. For the same cell line, the relative viability with BMX-IN-1 + Crizotinib (first compound 2 µM) was 1.1; with PAC-1 + Pictilisib (first compound 0.02 µM) it was 0.336; with PAC-1 + Pictilisib (first compound 0.06325 µM), 0.297; with PAC-1 + Pictilisib (first compound 0.2 µM), 0.336; with PAC-1 + Pictilisib (first compound 2 µM) it was 0.322.
